Earlier results, collected in patent EP2168584A1, “PHARMACEUTICAL COMPOSITION COMPRISING THE COMBINATION OF A TRIAZOLOBENZODIAZEPINE AND A SELECTIVE SEROTONIN REUPTAKE INHIBITOR” (World Trade Import-Export, WTIE A.G., priority 2007, dated 2009).
Read-outs that look alike come from different tables or passages of the source.

How the values were obtained:
[1] = relative to the therapeutic activity of Alprazolam

Cc1nnc2n1-c1ccc(Cl)cc1C(c1ccccc1)=NC2 [Alprazolam]
half-life of plasma elimination, range (human, in vivo): 6.3 to 26.9 h | Maximum plasma concentrations are obtained (time after administration) (human, in vivo, po): 1 to 2 h | bound to human serum proteins (human serum proteins): 80%

CNCCC(Oc1ccc(C(F)(F)F)cc1)c1ccccc1 (stereo not drawn) [Fluoxetine]
degree of fixation of plasma proteins (plasma proteins): especially high

Fc1ccc([C@@H]2CCNC[C@H]2COc2ccc3c(c2)OCO3)cc1 [Paroxetine]
degree of fixation of plasma proteins (plasma proteins): especially high | binds to plasma proteins (plasma proteins; plasma): 95% | elimination half-life (elderly and severe hepatic failure patients): ≤ 36 h | oral bioavailability (first-step metabolism): 50% | elimination half-life (human, in vivo): 21 h | dose metabolized (mainly in the liver, inactive metabolites): More than 95%

CN[C@H]1CC[C@@H](c2ccc(Cl)c(Cl)c2)c2ccccc21 [Sertraline]
degree of fixation of plasma proteins (plasma proteins): especially high

OCc1nnc2n1-c1ccc(Cl)cc1C(c1ccccc1)=NC2 [alpha-hydroxy-alprazolam]
biological activity of metabolite [1]: approximately to half of the therapeutic activity of Alprazolam
